According to patent US8435976B2, “4-substituted pyridin-3-yl-carboxamide compounds and methods of use” (F. Hoffmann-La Roche, priority 2009, dated 2013):

What was measured:
BaF3 PIM1 cells = BaF3 PIM1 cells (Homo sapiens, UniProt P11309); assay: BaF3 PIM1 cell proliferation (Cell Titer Glo); format: cell-based; details: incubated overnight; read-out: Prolif BaF3_PIM1 (IC50)
Description: (§1) BaF3 parental line was obtained from the DSMZ repository. BaF3 lines transfected with PIM1 or PIM2 were generated. Mouse IL-3 was purchased from R&D Systems. G418 was purchased from Clontech. Media for BaF3 parental line contained RPMI, 10% FBS, 2 mM L-Glutamine, 2 ng/mL mIL-3. Media for BaF3 PIM1 & 2 lines contained RPMI, 10% FBS, 2 mM L-Glutamine, […]. Media for MM1.S line contained RPMI, 10% FBS, 2 mM L-Glutamine.
(§2) BaF3 parental cells, BaF3 PIM1 cells, BaF3 PIM2 cells, and MM1.S cells were seeded at 2 k/well, 5 k/well, 5 k/well, and 10 k/well respectively, in a 384-well plate, at 45 μL/well. Test compound was added at 5 μL/well. BaF3 cells (parental and transfected) were incubated overnight, while MM1.S cells were incubated for 72 hours at 37° C., 5% CO2. Cell Titer Glo Reagent (Promega) was added at 50 μL/well, the plates were incubated for 30 minutes, and their luminescence read on an HT Analyst. IC50/EC50 values for the test compound were calculated.

PIM1 = biological target: T1, PIM1 (Homo sapiens, UniProt P11309); assay: Pim-1 kinase enzymatic assay (Caliper LC3000, FAM-Pimtide substrate); format: biochemical; details: 20 pM PIM1, 10 μM ATP, 90 minutes; read-out: PIM1 LC3K (Ki)
T1 construct: made in house
T1 sequence (P11309 whole entry): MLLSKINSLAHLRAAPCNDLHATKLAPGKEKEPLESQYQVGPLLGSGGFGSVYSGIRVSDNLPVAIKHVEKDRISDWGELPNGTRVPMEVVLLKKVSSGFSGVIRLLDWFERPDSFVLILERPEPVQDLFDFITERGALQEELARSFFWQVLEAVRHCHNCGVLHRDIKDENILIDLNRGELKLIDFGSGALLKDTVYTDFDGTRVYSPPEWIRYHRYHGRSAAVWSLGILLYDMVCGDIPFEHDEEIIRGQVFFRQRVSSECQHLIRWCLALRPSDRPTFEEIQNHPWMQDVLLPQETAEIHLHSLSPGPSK
Description: (§3) Reaction Buffer contained 10 mM HEPES, pH 7.2, 10 mM MgCl2, 0.01% Tween 20, 2 mM DTT.
(§4) PIM reactions were carried out in a final volume of 10 μL per well in a 384-well plate. […] The separation of product and substrate was optimized by choosing voltages and pressure using Caliper's Optimizer software (Hopkinton, Mass.). The separation conditions used a downstream voltage of −500V, an upstream voltage of −2150V, and a screening pressure of −1.2 psi. […] Substrate conversion was calculated from the electrophoregram using HTS Well Analyzer software (Caliper Life Sciences, Hopkinton, Mass.). Ki values for the test compound were calculated.

BaF3 PIM2 cells = BaF3 PIM2 cells (Homo sapiens, UniProt Q9P1W9); assay: BaF3 PIM2 cell proliferation (Cell Titer Glo); format: cell-based; details: incubated overnight; read-out: Prolif BaF3_PIM2 (IC50)
BaF3 PIM2 cells, sequence (Q9P1W9 whole entry, change not shown): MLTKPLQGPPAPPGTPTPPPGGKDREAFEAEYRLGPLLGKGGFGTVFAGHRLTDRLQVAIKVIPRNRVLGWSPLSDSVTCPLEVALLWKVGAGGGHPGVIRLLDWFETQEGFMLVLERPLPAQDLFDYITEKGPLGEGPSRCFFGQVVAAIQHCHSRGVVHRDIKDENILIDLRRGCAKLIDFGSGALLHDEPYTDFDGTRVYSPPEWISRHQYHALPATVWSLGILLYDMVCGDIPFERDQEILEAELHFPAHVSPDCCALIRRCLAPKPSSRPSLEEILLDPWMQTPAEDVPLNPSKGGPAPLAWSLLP
Description: as §1, §2

MM1.S cells = assay: MM1.S cell proliferation, 72 hours (Cell Titer Glo); format: cell-based; details: Homo sapiens, 72 hours, read-out: Prolif MM1S ATP (EC50)
Description: as §1, §2

PIM3 = biological target: T2, PIM3 (Homo sapiens, UniProt Q86V86); assay: Pim-3 kinase enzymatic assay (Caliper LC3000, FAM-Pimtide substrate); format: biochemical; details: 55 pM PIM3, 10 μM ATP, 90 minutes; read-out: PIM3 LC3K (Ki)
T2 construct: made in house
Description: as §3, §4

PIM2 = biological target: T3, PIM2 (Homo sapiens, UniProt Q9P1W9); assay: Pim-2 kinase enzymatic assay (Caliper LC3000, FAM-Pimtide substrate); format: biochemical; details: 50 pM PIM2, 10 μM ATP, 90 minutes; read-out: PIM2 LC3K (Ki)
T3 construct: made in house
T3 sequence (Q9P1W9 whole entry): as the sequence (Q9P1W9 whole entry, change not shown) above
Description: as §3, §4

BaF3 PIM1 cells, sequence (P11309 whole entry, change not shown): as the sequence (P11309 whole entry) above

Nc1sc(-c2cn[nH]c2)nc1C(=O)Nc1cnccc1N1CCC[C@H](N)C1 [Example 56, (S)-5-amino-N-(4-(3-aminopiperidin-1-yl)pyridin-3-yl)-2-(1H-pyrazol-4-yl)thiazole-4-carboxamide]
GI50 (BaF3 PIM1 cells): 1500 nM | Ki (PIM1): 0.115 nM | GI50 (BaF3 PIM2 cells): > 20000 nM | EC50 (MM1.S cells): 953 nM | Ki (PIM3): 0.08 nM | Ki (PIM2): 0.666 nM

Nc1sc(-c2cnc3ccccn23)nc1C(=O)Nc1cnccc1N1CCC[C@H](N)C1 [Example 57, (S)-5-amino-N-(4-(3-aminopiperidin-1-yl)pyridin-3-yl)-2-(imidazo[1,2-a]pyridin-3-yl)thiazole-4-carboxamide]
GI50 (BaF3 PIM1 cells): 494 nM | Ki (PIM1): 0.11 nM | GI50 (BaF3 PIM2 cells): > 20000 nM | EC50 (MM1.S cells): 5100 nM | Ki (PIM3): 0.229 nM | Ki (PIM2): 2.88 nM

Nc1sc(-c2c(Cl)cccc2Cl)nc1C(=O)Nc1cnccc1N1CCC[C@H](N)C1 [Example 58, (S)-5-amino-N-(4-(3-aminopiperidin-1-yl)pyridin-3-yl)-2-(2,6-dichlorophenyl)thiazole-4-carboxamide]
GI50 (BaF3 PIM1 cells): 232 nM | Ki (PIM1): 0.89 nM | GI50 (BaF3 PIM2 cells): 6500 nM | EC50 (MM1.S cells): 3100 nM | Ki (PIM3): 0.554 nM | Ki (PIM2): 1.85 nM

C=C(C)c1nc(C(=O)Nc2cnccc2N2CCC[C@H](N)C2)c(N)s1 [Example 59, (S)-5-amino-N-(4-(3-aminopiperidin-1-yl)pyridin-3-yl)-2-(prop-1-en-2-yl)thiazole-4-carboxamide]
GI50 (BaF3 PIM1 cells): > 20000 nM | Ki (PIM1): 18.2 nM | GI50 (BaF3 PIM2 cells): > 20000 nM | EC50 (MM1.S cells): > 20000 nM | Ki (PIM3): 48 nM | Ki (PIM2): 355 nM

Nc1sc(C2CCCC2)nc1C(=O)Nc1cnccc1N1CCC[C@H](N)C1 [Example 60, (S)-5-amino-N-(4-(3-aminopiperidin-1-yl)pyridin-3-yl)-2-cyclopentylthiazole-4-carboxamide]
GI50 (BaF3 PIM1 cells): 465 nM | Ki (PIM1): 1.07 nM | GI50 (BaF3 PIM2 cells): 17600 nM | EC50 (MM1.S cells): 1400 nM | Ki (PIM3): 0.279 nM | Ki (PIM2): 1.16 nM

Nc1sc(-c2ccc3nccn3c2)nc1C(=O)Nc1cnccc1N1CCC[C@H](N)C1 [Example 61, (S)-5-amino-N-(4-(3-aminopiperidin-1-yl)pyridin-3-yl)-2-(imidazo[1,2-a]pyridin-6-yl)thiazole-4-carboxamide]
GI50 (BaF3 PIM1 cells): 7100 nM | Ki (PIM1): 0.642 nM | GI50 (BaF3 PIM2 cells): > 20000 nM | EC50 (MM1.S cells): 10400 nM | Ki (PIM3): 1.01 nM | Ki (PIM2): 18.2 nM

Nc1sc(-c2ccccc2F)nc1C(=O)Nc1cnccc1N1C[C@@H](N)C[C@@H](F)C1 [Example 62, 5-amino-N-(4-((3S,5R)-3-amino-5-fluoropiperidin-1-yl)pyridin-3-yl)-2-(2-fluorophenyl)thiazole-4-carboxamide]
GI50 (BaF3 PIM1 cells): 6000 nM | Ki (PIM1): 1.34 nM | GI50 (BaF3 PIM2 cells): 10400 nM | EC50 (MM1.S cells): 364 nM | Ki (PIM3): 0.326 nM | Ki (PIM2): 8.87 nM

Nc1sc(-c2c(F)cccc2F)nc1C(=O)Nc1cnccc1N1C[C@@H](N)C[C@@H](F)C1 [Example 63, 5-amino-N-(4-((3S,5R)-3-amino-5-fluoropiperidin-1-yl)pyridin-3-yl)-2-(2,6-difluorophenyl)thiazole-4-carboxamide]
GI50 (BaF3 PIM1 cells): 3400 nM | Ki (PIM1): 0.437 nM | GI50 (BaF3 PIM2 cells): 12900 nM | EC50 (MM1.S cells): 19900 nM | Ki (PIM3): 0.246 nM | Ki (PIM2): 3.86 nM

Nc1sc(C2CCCNC2)nc1C(=O)Nc1cnccc1N1CCCC(N)C1 (stereo not drawn) [Example 65, 5-amino-N-(4-(3-aminopiperidin-1-yl)pyridin-3-yl)-2-(piperidin-3-yl)thiazole-4-carboxamide]
GI50 (BaF3 PIM1 cells): > 20000 nM | Ki (PIM1): 94.9 nM | GI50 (BaF3 PIM2 cells): > 20000 nM | EC50 (MM1.S cells): > 20000 nM | Ki (PIM3): 47.3 nM | Ki (PIM2): 97.1 nM

Nc1sc(-c2ncccc2F)nc1C(=O)Nc1cnccc1N1CCC[C@H](N)C1 [Example 66, (S)-5-amino-N-(4-(3-aminopiperidin-1-yl)pyridin-3-yl)-2-(3-fluoropyridin-2-yl)thiazole-4-carboxamide]
GI50 (BaF3 PIM1 cells): 40.6 nM | Ki (PIM1): 0.05 nM | GI50 (BaF3 PIM2 cells): 2100 nM | EC50 (MM1.S cells): 2800 nM | Ki (PIM3): 0.022 nM | Ki (PIM2): 0.0894 nM
